Source: ChEMBL document CHEMBL1149212, “Synthesis and biological evaluation of imidazole-based small molecule antagonists of the melanocortin 4 receptor (MC4-R)” (Bioorg Med Chem Lett, 2004)

Columns and labels:
HEK293 = assay: Ability to decrease the intracellular cAMP levels induced by 1 nM NDP-MSH in HEK293/ hMC4 cells.; format: functional, cell-based; settings: Homo sapiens
Melanocortin receptor 4 = Melanocortin receptor 4 (Homo sapiens, UniProt P32245); assay: In vitro binding affinity towards melanocortin 4 receptor.
[1] = Cmax in rat; format: ADME, organism-based; settings: in vivo
[2] = AUC in rat p.o.; format: ADME, organism-based; settings: plasma, po
[3] = Plasma clearance in rat p.o.; format: ADME, organism-based; settings: po
[4] = Cmax in rat at the dose of 1 mg/kg i.v.; format: ADME, organism-based; design: dose 1 mg/kg, route intravenous; settings: in vivo, iv
[5] = Plasma clearance was determined; format: ADME, organism-based; settings: rat
[6] = AUC was determined; format: ADME; settings: plasma

Chain of Melanocortin receptor 4 (P32245 whole entry): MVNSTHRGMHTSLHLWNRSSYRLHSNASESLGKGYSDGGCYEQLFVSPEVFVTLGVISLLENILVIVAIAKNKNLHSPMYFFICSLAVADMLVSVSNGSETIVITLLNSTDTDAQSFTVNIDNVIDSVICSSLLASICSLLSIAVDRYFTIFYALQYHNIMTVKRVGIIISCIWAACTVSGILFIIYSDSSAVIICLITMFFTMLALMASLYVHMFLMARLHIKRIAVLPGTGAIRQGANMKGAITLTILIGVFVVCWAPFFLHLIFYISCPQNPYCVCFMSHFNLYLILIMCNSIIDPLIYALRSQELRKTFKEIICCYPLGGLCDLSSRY

Compound | Ki (Melanocortin receptor 4) | IC50 (HEK293) | also measured
COc1ccc(Br)cc1CCc1c(F)cccc1-c1ncc2n1CCC2 | 320 nM | 390 nM | 
COc1ccc(Br)cc1CCc1c(Cl)cccc1-c1ncc2n1CCC2 | 180 nM | 710 nM | 
Cn1ccnc1-c1cccc(Cl)c1CCc1cc(Br)ccc1O | 9300 nM | 10200 nM | 
COc1ccc(Br)cc1CCc1c(F)cccc1-c1ncc2n1CCCC2 | 620 nM | 480 nM | 
COc1ccc(Br)cc1CCc1c(Cl)cccc1-c1ncc2n1CCCC2 | 340 nM | 590 nM | Cmax [1]: 6.45 µM; AUC [2]: 2 µM·h; CL/F [3]: 18.3 mL/min/kg
COc1ccc(Br)cc1CCc1c(Cl)cccc1-c1nccn1CC1CC1 | 2000 nM | 1700 nM | 
COc1ccc(Br)cc1CCc1c(F)cccc1C1=NCCN1 |  |  | Cmax [4]: 0.031 µM; clearance [5]: 222 mL/min/kg; AUC [6]: 0.204 µM·h
COc1ccc(Br)cc1CCc1c(Cl)cccc1-c1ncc[nH]1 | 1500 nM | 580 nM | 

Further lines, with some results ahead:

Ki (Melanocortin receptor 4) | Compound | IC50 (HEK293) | also measured
270 nM | COc1ccc(Br)cc1CCc1ccccc1-c1nc(C)cn1C | 240 nM | 
670 nM | COc1ccc(Br)cc1CCc1c(Cl)cccc1-c1nccn1C(C)C | 1400 nM | 
2500 nM | CCC(C)n1ccnc1-c1cccc(Cl)c1CCc1cc(Br)ccc1OC (configuration not stated) | 2100 nM | 
180 nM | COc1ccc(Br)cc1CCc1ccccc1-c1ncc(C)n1C | 51 nM | 
1300 nM | CCCn1ccnc1-c1cccc(Cl)c1CCc1cc(Br)ccc1OC | 1900 nM | 
690 nM | CCc1cn(C)c(-c2ccccc2CCc2cc(Br)ccc2OC)n1 | 820 nM | 
300 nM | COc1ccc(Br)cc1CCc1c(Cl)cccc1-c1nccn1C | 1100 nM | 
140 nM | COc1ccc(Br)cc1CCc1ccccc1-c1nc(C)c(C)n1C | 200 nM | 
1600 nM | COc1ccc(Br)cc1CCc1ccccc1-c1nc(C(C)C)cn1C | 1200 nM | 
320 nM | CCc1cnc(-c2ccccc2CCc2cc(Br)ccc2OC)n1C | 170 nM | 
310 nM | CCn1ccnc1-c1cccc(Cl)c1CCc1cc(Br)ccc1OC | 1800 nM | 
